Assay results published in PubChem BioAssay AID248 (DTP/NCI, 2004).
Where “and” joins values, the source holds several entries; their conditions need not be identical. Equal entries are not always repeated. Inconclusive results and toxic doses are left out. No stated cut-off is given here; in the data, active means T/C of 150% or more; inactive means T/C below 125%.

Test system: L1210 leukemia ip in BDF1 mice, survival T/C
Assay: NCI In Vivo Anticancer Drug Screen. Data for tumor model L1210 Leukemia (intraperitoneal) in B6D2F1 (BDF1) mice
Conditions: endpoint: mean survival time, higher = longer survival
How it was run: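 Tumor was transplanted into mice, which were then dosed with test compound or vehicle alone. Survival was recorded for each group, and the treated figure was expressed relative to the control figure.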

[1] = dose: 100.0 mg/kg/injection, schedule: Q04DX002 (ip), vehicle: Klucel (hydroxypropylcellulose) (HPC)
[2] = dose: 200.0 mg/kg/injection, schedule: Q04DX002 (ip), vehicle: Klucel (hydroxypropylcellulose) (HPC)
[3] = dose: 400.0 mg/kg/injection, schedule: Q04DX002 (ip), vehicle: Klucel (hydroxypropylcellulose) (HPC)
[4] = dose: 25.0 mg/kg/injection, schedule: Q04DX003 (ip), vehicle: saline with Tween-80
[5] = dose: 50.0 mg/kg/injection, schedule: Q04DX003 (ip), vehicle: saline with Tween-80
[6] = dose: 75.0 mg/kg/injection, schedule: Q01DX001 (ip), vehicle: saline
[7] = dose: 25.0 mg/kg/injection, schedule: Q01DX009 (ip), vehicle: saline with Tween-80
[8] = dose: 50.0 mg/kg/injection, schedule: Q01DX009 (ip), vehicle: saline with Tween-80
[9] = dose: 100.0 mg/kg/injection, schedule: Q01DX009 (ip), vehicle: saline with Tween-80
[10] = dose: 100.0 mg/kg/injection, schedule: Q04DX003 (ip), vehicle: saline with Tween-80
[11] = dose: 100.0 mg/kg/injection, schedule: Q04DX002 (ip), vehicle: saline with Tween-80
[12] = dose: 200.0 mg/kg/injection, schedule: Q04DX002 (ip), vehicle: saline with Tween-80
[13] = dose: 400.0 mg/kg/injection, schedule: Q04DX002 (ip), vehicle: saline with Tween-80
[14] = dose: 200.0 mg/kg/injection, schedule: Q01DX009 (ip), vehicle: saline with Tween-80
[15] = dose: 200.0 mg/kg/injection, schedule: Q04DX003 (ip), vehicle: saline with Tween-80
[16] = dose: 400.0 mg/kg/injection, schedule: Q01DX009 (ip), vehicle: saline with Tween-80
[17] = dose: 400.0 mg/kg/injection, schedule: Q04DX003 (ip), vehicle: saline with Tween-80
[18] = dose: 50.0 mg/kg/injection, schedule: Q01DX009 (ip), vehicle: saline
[19] = dose: 100.0 mg/kg/injection, schedule: Q01DX009 (ip), vehicle: saline
[20] = dose: 200.0 mg/kg/injection, schedule: Q01DX009 (ip), vehicle: saline
[21] = dose: 100.0 mg/kg/injection, schedule: Q04DX003 (ip), vehicle: Klucel (hydroxypropylcellulose) (HPC)
[22] = dose: 200.0 mg/kg/injection, schedule: Q04DX003 (ip), vehicle: Klucel (hydroxypropylcellulose) (HPC)
[23] = dose: 100.0 mg/kg/injection, schedule: Q01DX001 (ip), vehicle: Klucel (hydroxypropylcellulose) (HPC)
[24] = dose: 25.0 mg/kg/injection, schedule: Q01DX009 (ip), vehicle: Klucel (hydroxypropylcellulose) (HPC)
[25] = dose: 50.0 mg/kg/injection, schedule: Q01DX009 (ip), vehicle: Klucel (hydroxypropylcellulose) (HPC)
[26] = dose: 100.0 mg/kg/injection, schedule: Q01DX009 (ip), vehicle: Klucel (hydroxypropylcellulose) (HPC)

Measured: T/C

COc1ccc(-c2nc3ncnc(N)c3[nH]2)cc1
inactive: dose: 12.5 mg/kg/injection, schedule: Q01DX001 (ip), vehicle: saline with Tween-80 102 % of control | dose: 25.0 mg/kg/injection, schedule: Q01DX001 (ip), vehicle: saline with Tween-80 109 % of control | dose: 50.0 mg/kg/injection, schedule: Q01DX001 (ip), vehicle: saline with Tween-80 106 % of control

O=C1CN=C(c2ccccc2Cl)c2cc([N+](=O)[O-])ccc2N1
inactive: [1] 93 % of control | [2] 108 % of control | [3] 86 % of control

N#Cc1nccnc1Cl
inactive: dose: 12.5 mg/kg/injection, schedule: Q04DX003 (ip), vehicle: saline with Tween-80 96 % of control | dose: 25.0 mg/kg/injection, schedule: Q01DX009 (ip), vehicle: other 95 % of control | [4] 99 % of control | dose: 50.0 mg/kg/injection, schedule: Q01DX009 (ip), vehicle: other 93 % of control | [5] 86 % of control | dose: 100.0 mg/kg/injection, schedule: Q01DX009 (ip), vehicle: other 109 % of control

C=COC(N)=O
inactive: dose: 33.0 mg/kg/injection, schedule: Q01DX001 (ip), vehicle: saline 116 % of control | dose: 50.0 mg/kg/injection, schedule: Q01DX001 (ip), vehicle: saline 117 % of control | [6] 121 % of control | dose: 113.0 mg/kg/injection, schedule: Q01DX001 (ip), vehicle: saline 111 % of control

COC(CNCCO)c1ccccc1 (configuration not stated)
inactive: [7] 104 % of control | [8] 98 % of control | [9] 106 % of control

Cc1ccc(N=[N+]([O-])c2ccc(C)c(Br)c2)cc1Br
inactive: [1] 102 % of control | [2] 98 % of control | [3] 98 % of control

CCNC(C)CC(C)C (configuration not stated)
inactive: [7] 101 % of control | [4] 95 % of control | [8] 92 % of control | [5] 92 % of control | [9] 98 % of control | [10] 93 % of control and 96 % of control

CN(C)C(=O)C(c1ccccc1)[P+](C)(c1ccccc1)c1ccccc1 (configuration not stated)
inactive: dose: 75.0 mg/kg/injection, schedule: Q01DX001 (ip), vehicle: other 95 % of control

CCCCCCCCOc1nccc(N)n1
inactive: dose: 75.0 mg/kg/injection, schedule: Q01DX001 (ip), vehicle: saline with Tween-80 105 % of control

CC#CCCC(=O)OCCCC
inactive: [11] 101 % of control | [12] 93 % of control | [13] 97 % of control

CCOC(=O)Nc1cc(Cl)cc(NC(=O)OCC)n1
inactive: dose: 100.0 mg/kg/injection, schedule: Q01DX001 (ip), vehicle: other 94 % of control | [9] 96 % of control | [10] 107 % of control | dose: 200.0 mg/kg/injection, schedule: Q01DX001 (ip), vehicle: other 102 % of control | [14] 106 % of control | [15] 100 % of control | dose: 400.0 mg/kg/injection, schedule: Q01DX001 (ip), vehicle: other 96 % of control | [16] 96 % of control | [17] 108 % of control

ClC1=C(Cl)C2(Cl)CCC1(Cl)C2Cl (configuration not stated)
inactive: [18] 103 % of control | [19] 98 % of control | dose: 100.0 mg/kg/injection, schedule: Q04DX003 (ip), vehicle: saline 104 % of control | [20] 95 % of control | dose: 200.0 mg/kg/injection, schedule: Q04DX003 (ip), vehicle: saline 103 % of control | dose: 400.0 mg/kg/injection, schedule: Q04DX003 (ip), vehicle: saline 97 % of control

COc1cc(/C=C2\CCC/C(=C\c3ccc(O)c(OC)c3)C2=O)ccc1O
inactive: [21] 93 % of control | [22] 87 % of control

S=c1oc2cccc3c2n1CCC3
inactive: [9] 113 % of control | [10] 97 % of control | [14] 101 % of control | [15] 107 % of control | [16] 98 % of control | [17] 97 % of control

CCCCCCCCCCC(N)C(=O)O (configuration not stated)
inactive: dose: 12.5 mg/kg/injection, schedule: Q04DX002 (ip), vehicle: Klucel (hydroxypropylcellulose) (HPC) 104 % of control | dose: 25.0 mg/kg/injection, schedule: Q04DX002 (ip), vehicle: Klucel (hydroxypropylcellulose) (HPC) 91 % of control | dose: 50.0 mg/kg/injection, schedule: Q04DX002 (ip), vehicle: Klucel (hydroxypropylcellulose) (HPC) 88 % of control

CC(C)[CH2][Sn]([CH2]C(C)C)([CH2]C(C)C)[C](C)(C)C
inactive: dose: 100.0 mg/kg/injection, schedule: Q04DX002 (ip), vehicle: saline 94 % of control | dose: 200.0 mg/kg/injection, schedule: Q04DX002 (ip), vehicle: saline 90 % of control | dose: 400.0 mg/kg/injection, schedule: Q04DX002 (ip), vehicle: saline 100 % of control

O=C1CC2C(=O)CC1C(C(=O)O)C2C(=O)O (configuration not stated)
inactive: [6] 102 % of control | [23] 103 % of control | dose: 150.0 mg/kg/injection, schedule: Q01DX001 (ip), vehicle: saline 104 % of control | dose: 200.0 mg/kg/injection, schedule: Q01DX001 (ip), vehicle: Klucel (hydroxypropylcellulose) (HPC) 119 % of control | dose: 300.0 mg/kg/injection, schedule: Q01DX001 (ip), vehicle: saline 105 % of control | dose: 400.0 mg/kg/injection, schedule: Q01DX001 (ip), vehicle: Klucel (hydroxypropylcellulose) (HPC) 98 % of control

C=CCOC(=O)c1ccco1
inactive: [24] 98 % of control | [25] 106 % of control | [26] 94 % of control and 96 % of control

O=CNCc1cnccn1
inactive: [9] 93 % of control | [14] 95 % of control | [16] 97 % of control

CC(C)(C)c1ccc(S(=O)(=O)c2ccc(C(C)(C)C)cc2)cc1
inactive: [21] 94 % of control | [22] 105 % of control | dose: 400.0 mg/kg/injection, schedule: Q04DX003 (ip), vehicle: Klucel (hydroxypropylcellulose) (HPC) 91 % of control

CC1(CO)CC2C=CC1C2 (configuration not stated)
inactive: [11] 99 % of control | [12] 99 % of control | [13] 99 % of control

CN(C(=O)/C=C/C(=O)O)c1ccccc1
inactive: dose: 25.0 mg/kg/injection, schedule: Q01DX009 (ip), vehicle: saline 104 % of control | [18] 110 % of control | [5] 98 % of control | [19] 105 % of control | [10] 101 % of control | [20] 96 % of control | [15] 95 % of control | [17] 97 % of control

Cc1cc2oc(=O)c3c(c2c(O)c1CN1CCCC1)CCCC3
inactive: dose: 100.0 mg/kg/injection, schedule: Q01DX001 (ip), vehicle: saline 92 % of control | dose: 200.0 mg/kg/injection, schedule: Q01DX001 (ip), vehicle: saline 89 % of control | dose: 400.0 mg/kg/injection, schedule: Q01DX001 (ip), vehicle: saline 98 % of control

NNC(=O)C(=O)NN
inactive: [1] 102 % of control | [2] 98 % of control | [3] 93 % of control

O=C(N1CCC(CCCc2ccccc2)CC1)C(Cl)(Cl)Cl
inactive: [1] 95 % of control | [2] 95 % of control | [3] 100 % of control

COc1ccc(COC(=O)N=[N+]=[N-])cc1
inactive: dose: 12.5 mg/kg/injection, schedule: Q04DX003 (ip), vehicle: Klucel (hydroxypropylcellulose) (HPC) 112 % of control | [24] 98 % of control | dose: 25.0 mg/kg/injection, schedule: Q04DX003 (ip), vehicle: Klucel (hydroxypropylcellulose) (HPC) 110 % of control | [25] 91 % of control | dose: 50.0 mg/kg/injection, schedule: Q04DX003 (ip), vehicle: Klucel (hydroxypropylcellulose) (HPC) 105 % of control | [23] 98 % of control | [21] 105 % of control

COc1ccc([N+](=O)[O-])cc1NC(=O)N(c1ccccc1)C(C)C
inactive: [25] 101 % of control | [26] 107 % of control | dose: 200.0 mg/kg/injection, schedule: Q01DX009 (ip), vehicle: Klucel (hydroxypropylcellulose) (HPC) 86 % of control
